In experiment [1] the test system is SUDHL10. As to the kind of experiment: Anti-proliferative effect (CellTiter-Glo, 72 h), SUDHL10. Type of experiment: cell-based. Conditions: Homo sapiens, SU-DHL10, 72 h, SUDHL10 cells, antiproliferation, 72 h incubation, median, read-out: Antiproli SUDHL10 [M] (median). In a few lines:
(§1)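 CTG luminescence read-out after 72 h compound exposure, 37 °C, humidified. Time-zero reference plate read at plating.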

The test system of experiment [2] is SUDHL5. As to the kind of experiment: Induction of caspase-3/7 activity (Caspase-Glo 3/7), SUDHL5. Format: cell-based. Conditions: Homo sapiens, SU-DHL-5, 3 h, caspase-3/7 induction, SUDHL5 cells, 3 h treatment; median. The gist of the method: (§2)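 Caspase-Glo 3/7 luminescence, 3 h compound exposure, 37 °C, humidified. Minus medium-only blank. EC50 fit: C0=1, plateau = reference max induction.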

The next experiment concerns the target MCL-1 (Homo sapiens, UniProt Q07820). Nature of the experiment: Protein-protein interaction assay MCL-1/Noxa BH3 peptide (MCL-1 assay), TR-FRET. Format: binding. The conditions noted are these: MBP-MCL-1 / Noxa BH3-derived peptide, median. The gist of the method: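 Displacement of the biotinylated Noxa BH3 peptide from MBP-tagged human MCL-1 (1 nM) is detected by time-resolved FRET. Compounds are tested in duplicate across eleven concentrations up to 20 μM, incubated 1 h at 22 °C and overnight at 4 °C, and IC50 is fitted with a four-parameter equation.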
For orientation: Time-resolved FRET reads energy transfer from a long-lived donor to a nearby acceptor.

A further experiment concerns OPM2. As to the kind of experiment: Anti-proliferative effect (CellTiter-Glo, 72 h), OPM2. Type of experiment: cell-based. Conditions: Homo sapiens, OPM-2, 72 h, OPM2 cells, median, read-out: IC50 antiproliferation assay OPM2 [M] (median). The protocol: Assessment of the Anti-Proliferative Effect of Compounds in Different Cell Lines
The impact of compounds on the proliferation of different cell lines was assessed using the CellTiter-Glo® Luminescent Cell Viability reagent from Promega (G7573). Of note, SUDHL10 and SUDHL5 (DLBCL), NCI-H929 (Multiple Myeloma), A2780 (ovarian carcinoma) as well as MV-4-11(AML) cells are sensitive to MCL-1 inhibition.
In parallel, cells were plated in a reference (day 0) plate for time zero determination.
Rim wells were excluded. The cells were incubated for 72 h hours in a humidified incubator at 37° C. The day 0 plate was measured by adding 30 μl/well of CTG solution (CellTiter-Glo® Luminescent Cell Viability reagent, Promega G7573) to time zero wells in the reference plate followed by a 10 minutes incubation and luminescence reading at 0.1 ms, using the PHERAstar FS microplate reader (BMG Labtech).
After 72 h incubation, the treated plates were measured in the same way as the day 0 plate mentioned above.
(In general: Cellular ATP, detected with luciferase, serves as a proxy for viable cell number.)

Experiment [3] deals with SUDHL10. Nature of the experiment: Induction of cytotoxicity (CellTiter-Glo, 5 h), SUDHL10. Conditions: Homo sapiens, SU-DHL10, 5 h, read-out: Cytotox SUDHL10 [M] (median), SUDHL10 cells, cytotoxicity induction, CellTiter-Glo, 5 h incubation, median.
Experiment [4] concerns SUDHL10. Nature of the experiment: Induction of caspase-3/7 activity (Caspase-Glo 3/7), SUDHL10. Conditions: Homo sapiens, SU-DHL10, 3 h, caspase-3/7 induction, SUDHL10 cells, 3 h treatment; median. Type of experiment: cell-based. The gist of the method:
as §2

Experiment [5] relates to SUDHL5. Nature of the experiment: Induction of cytotoxicity (CellTiter-Glo, 5 h), SUDHL5. Conditions: Homo sapiens, SU-DHL-5, 5 h, read-out: Cytotox SUDHL5 [M] (median), SUDHL5 cells, cytotoxicity induction, CellTiter-Glo, 5 h incubation, median.
For another experiment, the system named is A2780. As to the kind of experiment: Anti-proliferative effect (CellTiter-Glo, 72 h), A2780. Conditions: Homo sapiens, A2780, 72 h, A2780 cells, median, read-out: IC50 antiproliferation assay A2780 [M] (median). Type of experiment: cell-based. The gist of the method: as §1

The structures appear in SMILES notation.

MCL-1, sequence (Q07820 whole entry): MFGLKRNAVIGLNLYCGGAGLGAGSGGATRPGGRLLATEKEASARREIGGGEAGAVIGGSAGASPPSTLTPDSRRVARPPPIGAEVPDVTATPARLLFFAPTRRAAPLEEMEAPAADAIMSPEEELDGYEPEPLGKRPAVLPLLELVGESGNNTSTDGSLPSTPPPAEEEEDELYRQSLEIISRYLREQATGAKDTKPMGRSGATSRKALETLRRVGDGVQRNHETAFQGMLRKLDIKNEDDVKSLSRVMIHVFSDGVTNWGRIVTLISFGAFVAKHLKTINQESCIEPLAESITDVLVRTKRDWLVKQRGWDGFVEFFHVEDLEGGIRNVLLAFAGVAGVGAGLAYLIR

For orientation: EC50 means the concentration giving half of the maximal effect. A low value points to an effect from little substance. On to `Cc1nn(C)c2c1-c1cccc3c(CCCOc4ccccc4)c(C(=O)O)n(c13)CCCCOC2` (racemic) [Example 016, (rac)-1,3-dimethyl-7-(3-phenoxypropyl)-1,10,11,12,13,15-hexahydropyrazolo[4′,3′:9,10][1,6]oxazacycloundecino[8,7,6,6-hi]indole-8-carboxylic Acid], for which the IC50 with SUDHL10 [1] is > 3.3e-05 M; on MCL-1 it was 0.495 µM; in the experiment on OPM2, > 3.3e-05 M; in the experiment on SUDHL10 [3], > 3.3e-05 M; in the experiment with SUDHL5 [5], > 3.3e-05 M; in the experiment on A2780, > 3.3e-05 M. Moreover, the EC50 with SUDHL5 [2] and in the experiment on SUDHL10 [4] was > 33 µM in each case.
For `COCCn1nc2c(c1CN1CCOCC1)-c1cccc3c(CCCOc4cccc5ccccc45)c(C(=O)O)n(c13)CCCN(C)C2` (racemic) [Example 056, (rac)-10-(2-methoxyethyl)-7-methyl-11-(morpholin-4-ylmethyl)-1-[3-(naphthalen-1-yloxy)propyl]-4,5,6,7,8,10-hexahydropyrazolo[3′,4′:7,8][1,5]diazecino[9,10,1-hi]indole-2-carboxylic Acid], the IC50 with SUDHL10 [1] was 2e-05 M; on MCL-1 it was 0.049 µM; in the experiment with OPM2, > 3.3e-05 M; in the experiment with SUDHL10 [3] it was > 3.3e-05 M; in the experiment with SUDHL5 [5], > 3.3e-05 M; in the experiment on A2780, > 3.3e-05 M. In addition, the EC50 in the experiment on SUDHL5 [2] and in the experiment with SUDHL10 [4] was > 33 µM in each case.
For `Cn1nc2c(c1CN1CCOCC1)-c1cccc3c(CCCOc4cccc5ccccc45)c(C(=O)O)n(c13)C/C=C\COC2` (racemic) [Example 066, (rac)-(11Z)-2-Methyl-3-(morpholin-4-ylmethyl)-7-[3-(naphthalen-1-yloxy)propyl]-2,10,13,15-tetrahydropyrazolo[4′,3′:9,10][1,6]oxazacycloundecino[8,7,6-hi]indole-8-carboxylic Acid], the IC50 was 6.96e-06 M with SUDHL10 [1]; 0.0285 µM against MCL-1; > 3.3e-05 M in the experiment with OPM2; > 3.3e-05 M in the experiment on SUDHL10 [3]; > 3.3e-05 M in the experiment on SUDHL5 [5]; 2.8e-05 M with A2780. In addition, the EC50 in the experiment with SUDHL5 [2] is > 33 µM; with SUDHL10 [4] it was 29 µM.
As to `Cc1c2c(nn1C)CN(C)CCCCn1c(C(=O)O)c(CCCOc3cccc4ccccc34)c3cccc-2c31` (racemic) [Example 067, (rac)-2,3,14-trimethyl-7-[3-(naphthalen-1-yloxy)propyl]-10,11,12,13,14,15-hexahydro-2H-pyrazolo[3′,4′:8,9][1,6]diazacycloundecino[10,11,1-hi]indole-8-carboxylic Acid], the IC50 in the experiment on SUDHL10 [1] is 5.38e-06 M; on MCL-1, 0.0221 µM; with OPM2 it was 1.48e-05 M; in the experiment on SUDHL10 [3] it was > 3.3e-05 M; in the experiment with SUDHL5 [5], > 3.3e-05 M; in the experiment on A2780 it was 2.72e-06 M. In addition, the EC50 in the experiment on SUDHL5 [2] and in the experiment on SUDHL10 [4] was > 33 µM throughout.
On to `COc1cc2cc(c1)-c1cccc3c(CCCOc4cccc5c4CCCC5)c(C(=O)O)n(c13)CCCCCO2` (racemic) [Example 116, (rac)-12-Methoxy-1-[3-(5,6,7,8-tetrahydronaphthalen-1-yloxy)propyl]-5,6,7,8-tetrahydro-4H-10,14-(metheno)[1,7]oxazacyclotetradecino[9,8,7-hi]indole-2-carboxylic Acid], for which the IC50 was > 3.3e-05 M in the experiment with SUDHL10 [1]; 8.28 µM against MCL-1; 1.79e-05 M in the experiment on OPM2; > 3.3e-05 M with SUDHL10 [3]; > 3.3e-05 M in the experiment with SUDHL5 [5]; 2.21e-05 M in the experiment on A2780. Further, the EC50 in the experiment on SUDHL5 [2] and with SUDHL10 [4] was > 33 µM in each case.
For `Cc1ccc2cc1-c1cccc3c(CCCOc4cccc5ccccc45)c(C(=O)O)n(c13)CCOCCO2` (racemic) [Example 117, (rac)-13-Methyl-1-[3-(naphthalen-1-yloxy)propyl]-4,5,7,8-tetrahydro-10,14-(metheno)[1,4,7]dioxazacyclotetradecino[9,8,7-hi]indole-2-carboxylic Acid], the IC50 was > 3.3e-05 M in the experiment with SUDHL10 [1]; 0.633 µM on MCL-1; > 3.3e-05 M with OPM2; > 3.3e-05 M in the experiment with SUDHL10 [3]; > 3.3e-05 M in the experiment on SUDHL5 [5]; > 3.3e-05 M with A2780. The EC50 in the experiment on SUDHL5 [2] and with SUDHL10 [4] was > 33 µM throughout.
As for `CN1CCCCn2c(C(=O)O)c(CCCOc3cccc4ccccc34)c3cccc(c32)-c2cnn(C)c2C1` (racemic) [Example 127, (rac)-1,14-dimethyl-7-[3-(naphthalen-1-yloxy)propyl]-10,11,12,13,14,15-hexahydro-1H-pyrazolo[3′,4′:8,9][1,6]diazacycloundecino[10,11,1-hi]indole-8-carboxylic Acid], the IC50 in the experiment on SUDHL10 [1] was 9.32e-06 M; against MCL-1, 0.0144 µM; with OPM2, > 3.3e-05 M; in the experiment with SUDHL10 [3], > 3.3e-05 M; with SUDHL5 [5], > 3.3e-05 M; in the experiment with A2780 it was 2.44e-05 M. Also, the EC50 with SUDHL5 [2] and with SUDHL10 [4] was > 33 µM in each case.
Regarding `Cn1ncc2c1COCCCCn1c(C(=O)O)c(CCCOc3cccc4ccccc34)c3cccc-2c31` (racemic) [Example 128, (rac)-1-methyl-7-[3-(naphthalen-1-yloxy)propyl]-1,10,11,12,13,15-hexahydropyrazolo[4′,3′:9,10][1,6]oxazacycloundecino[8,7,6-hi]indole-8-carboxylic Acid], the IC50 in the experiment on SUDHL10 [1] was 1.29e-05 M; on MCL-1, 0.0403 µM; in the experiment with OPM2, > 3.3e-05 M; in the experiment on SUDHL10 [3] it was > 3.3e-05 M; in the experiment with SUDHL5 [5], > 3.3e-05 M; in the experiment with A2780, 3.04e-05 M. In addition, the EC50 with SUDHL5 [2] and with SUDHL10 [4] was > 33 µM in each case.
As for `CN1CCCn2c(C(=O)O)c(CCCOc3cccc4ccccc34)c3cccc(c32)-c2c(CNCC(F)(F)F)nn(C)c2C1` (racemic) [Example 129, (rac)-7,9-dimethyl-1-[3-(naphthalen-1-yloxy)propyl]-11-{[(2,2,2-trifluoroethyl)amino]methyl}-4,5,6,7,8,9-hexahydropyrazolo[3′,4′:7,8][1,5]diazecino[9,10,1-hi]indole-2-carboxylic Acid (Racemate)], the IC50 was 6.99e-06 M in the experiment with SUDHL10 [1]; 0.0222 µM at MCL-1; > 3.3e-05 M with OPM2; > 3.3e-05 M with SUDHL10 [3]; > 3.3e-05 M in the experiment with SUDHL5 [5]; 1.7e-05 M with A2780. For the same compound, the EC50 with SUDHL5 [2] and in the experiment on SUDHL10 [4] was > 33 µM in each case.
For `Cn1nc(CN2CCOCC2)c2c1COCCCn1c(C(=O)O)c(CCCOc3cccc4ccccc34)c3cccc-2c31` (racemic) [Example 138, (rac)-9-methyl-11-(morpholin-4-ylmethyl)-1-[3-(naphthalen-1-yloxy)propyl]-5,6,8,9-tetrahydro-4H-pyrazolo[4′,3′:8,9][1,5]oxazecino[7,6,5-hi]indole-2-carboxylic Acid], the IC50 in the experiment with SUDHL10 [1] was 1.16e-05 M; on MCL-1 it was 0.0135 µM; in the experiment with OPM2 it was > 3.3e-05 M; in the experiment on SUDHL10 [3], > 3.3e-05 M; in the experiment on SUDHL5 [5] it was 1.13e-05 M; in the experiment with A2780 it was > 3.3e-05 M. Further, the figures for the EC50 in the experiment on SUDHL5 [2] and in the experiment on SUDHL10 [4] were 11.1 µM and > 33 µM, respectively.

Values taken from patent US10981932B2, “Macrocyclic indole derivatives” (Bayer Aktiengesellschaft, priority 2016, dated 2021).
